Columns and labels:
[1] = biological target: Cytochrome P450 3A4 (Homo sapiens, UniProt P08684); assay: Inhibition of CYP3A4 (unknown origin)
[2] = biological target: Cytochrome P450 2D6 (Homo sapiens, UniProt P10635); assay: Inhibition of CYP2D6 (unknown origin)
[3] = biological target: T1, Cytochrome P450 1A2 (Homo sapiens, UniProt P05177); assay: Inhibition of CYP1A2 (unknown origin)
T1 sequence (P05177 whole entry): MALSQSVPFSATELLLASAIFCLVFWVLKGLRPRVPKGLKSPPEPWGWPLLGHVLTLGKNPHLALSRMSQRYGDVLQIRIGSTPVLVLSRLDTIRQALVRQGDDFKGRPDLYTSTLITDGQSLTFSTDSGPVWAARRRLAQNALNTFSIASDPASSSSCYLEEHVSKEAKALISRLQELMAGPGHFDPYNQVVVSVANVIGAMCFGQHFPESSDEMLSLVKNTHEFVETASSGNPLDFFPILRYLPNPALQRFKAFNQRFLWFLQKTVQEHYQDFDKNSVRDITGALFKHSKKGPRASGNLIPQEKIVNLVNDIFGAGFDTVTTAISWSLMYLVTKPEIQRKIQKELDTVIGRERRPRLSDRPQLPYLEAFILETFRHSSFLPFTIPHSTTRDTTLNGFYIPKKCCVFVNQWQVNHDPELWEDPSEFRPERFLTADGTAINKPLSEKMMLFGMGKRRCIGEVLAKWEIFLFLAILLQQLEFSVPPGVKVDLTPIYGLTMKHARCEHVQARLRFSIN

[4] = biological target: Cytochrome P450 2C9 (Homo sapiens, UniProt P11712); assay: Inhibition of CYP2C9 (unknown origin)
[5] = biological target: Cytochrome P450 2C19 (Homo sapiens, UniProt P33261); assay: Inhibition of CYP2C19 (unknown origin)
[6] = biological target: Potassium voltage-gated channel subfamily H member 2 (Homo sapiens, UniProt Q12809); assay: Inhibition of hERG
Sequence of Potassium voltage-gated channel subfamily H member 2 (Q12809 whole entry): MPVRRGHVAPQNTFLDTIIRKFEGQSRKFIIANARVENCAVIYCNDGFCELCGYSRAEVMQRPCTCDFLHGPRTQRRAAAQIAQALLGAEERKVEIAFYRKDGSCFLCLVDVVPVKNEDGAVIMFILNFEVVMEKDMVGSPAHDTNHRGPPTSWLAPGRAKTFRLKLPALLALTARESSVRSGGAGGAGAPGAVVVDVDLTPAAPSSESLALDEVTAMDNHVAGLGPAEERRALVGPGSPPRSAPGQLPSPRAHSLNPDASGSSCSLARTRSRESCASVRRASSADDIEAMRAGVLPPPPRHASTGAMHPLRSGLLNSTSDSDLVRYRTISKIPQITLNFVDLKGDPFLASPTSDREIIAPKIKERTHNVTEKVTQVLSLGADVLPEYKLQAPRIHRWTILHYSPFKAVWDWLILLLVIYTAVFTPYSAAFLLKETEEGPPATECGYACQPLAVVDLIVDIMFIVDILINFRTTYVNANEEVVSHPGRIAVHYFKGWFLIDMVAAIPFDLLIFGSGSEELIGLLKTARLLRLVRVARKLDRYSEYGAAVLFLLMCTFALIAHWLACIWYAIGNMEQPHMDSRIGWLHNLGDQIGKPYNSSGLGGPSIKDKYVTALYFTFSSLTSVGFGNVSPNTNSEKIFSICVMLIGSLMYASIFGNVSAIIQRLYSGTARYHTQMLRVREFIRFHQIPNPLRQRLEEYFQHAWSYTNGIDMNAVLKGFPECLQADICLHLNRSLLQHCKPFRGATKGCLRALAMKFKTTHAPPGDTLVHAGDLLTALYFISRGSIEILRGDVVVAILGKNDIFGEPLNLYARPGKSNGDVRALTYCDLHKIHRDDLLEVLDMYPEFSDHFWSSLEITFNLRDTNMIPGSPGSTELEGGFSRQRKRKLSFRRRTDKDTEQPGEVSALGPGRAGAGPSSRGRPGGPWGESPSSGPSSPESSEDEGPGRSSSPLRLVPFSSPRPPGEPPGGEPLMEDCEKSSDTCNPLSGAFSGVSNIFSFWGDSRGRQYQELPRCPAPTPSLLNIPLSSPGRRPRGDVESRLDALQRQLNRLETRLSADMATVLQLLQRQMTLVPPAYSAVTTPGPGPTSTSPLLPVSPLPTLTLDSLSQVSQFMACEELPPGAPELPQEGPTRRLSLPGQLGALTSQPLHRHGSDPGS

Sequence of Cytochrome P450 2C19 (P33261 whole entry): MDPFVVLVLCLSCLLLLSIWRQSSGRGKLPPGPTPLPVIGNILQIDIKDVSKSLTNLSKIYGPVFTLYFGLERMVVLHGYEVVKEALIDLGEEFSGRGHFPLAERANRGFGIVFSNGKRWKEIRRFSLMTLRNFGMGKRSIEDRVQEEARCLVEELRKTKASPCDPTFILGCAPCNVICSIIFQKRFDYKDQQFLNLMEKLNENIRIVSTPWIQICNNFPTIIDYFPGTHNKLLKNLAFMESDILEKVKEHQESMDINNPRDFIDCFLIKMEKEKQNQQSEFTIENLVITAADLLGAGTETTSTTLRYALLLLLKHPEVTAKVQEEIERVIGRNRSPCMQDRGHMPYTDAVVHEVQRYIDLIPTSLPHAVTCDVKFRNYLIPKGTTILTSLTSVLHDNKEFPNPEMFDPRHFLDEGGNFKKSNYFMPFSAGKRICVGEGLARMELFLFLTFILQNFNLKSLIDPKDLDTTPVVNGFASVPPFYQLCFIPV
Sequence of Cytochrome P450 3A4 (P08684 whole entry): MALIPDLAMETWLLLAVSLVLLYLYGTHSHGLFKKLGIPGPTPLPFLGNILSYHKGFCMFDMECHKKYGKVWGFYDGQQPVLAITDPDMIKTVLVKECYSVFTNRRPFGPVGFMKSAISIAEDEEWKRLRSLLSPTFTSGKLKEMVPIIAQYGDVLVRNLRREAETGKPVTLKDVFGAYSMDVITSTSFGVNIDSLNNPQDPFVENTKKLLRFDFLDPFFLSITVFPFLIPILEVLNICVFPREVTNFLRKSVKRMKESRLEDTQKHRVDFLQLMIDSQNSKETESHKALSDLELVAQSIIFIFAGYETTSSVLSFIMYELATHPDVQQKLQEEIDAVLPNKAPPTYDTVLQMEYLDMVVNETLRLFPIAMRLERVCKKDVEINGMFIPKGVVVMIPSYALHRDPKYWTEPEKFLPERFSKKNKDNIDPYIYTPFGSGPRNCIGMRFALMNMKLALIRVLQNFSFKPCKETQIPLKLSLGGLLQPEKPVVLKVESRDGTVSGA
Sequence of Cytochrome P450 2C9 (P11712 whole entry): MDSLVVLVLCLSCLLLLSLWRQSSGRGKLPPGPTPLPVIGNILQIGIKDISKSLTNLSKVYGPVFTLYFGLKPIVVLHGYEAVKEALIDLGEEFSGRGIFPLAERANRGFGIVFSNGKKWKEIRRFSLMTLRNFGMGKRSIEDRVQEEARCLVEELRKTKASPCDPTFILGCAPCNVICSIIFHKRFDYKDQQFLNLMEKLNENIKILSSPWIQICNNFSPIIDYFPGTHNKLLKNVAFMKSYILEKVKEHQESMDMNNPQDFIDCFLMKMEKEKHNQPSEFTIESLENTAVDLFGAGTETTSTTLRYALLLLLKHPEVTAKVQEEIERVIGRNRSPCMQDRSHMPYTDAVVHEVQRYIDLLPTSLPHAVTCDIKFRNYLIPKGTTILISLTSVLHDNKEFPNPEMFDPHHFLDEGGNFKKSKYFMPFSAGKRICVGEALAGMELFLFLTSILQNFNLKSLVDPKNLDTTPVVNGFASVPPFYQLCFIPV
Sequence of Cytochrome P450 2D6 (P10635 whole entry): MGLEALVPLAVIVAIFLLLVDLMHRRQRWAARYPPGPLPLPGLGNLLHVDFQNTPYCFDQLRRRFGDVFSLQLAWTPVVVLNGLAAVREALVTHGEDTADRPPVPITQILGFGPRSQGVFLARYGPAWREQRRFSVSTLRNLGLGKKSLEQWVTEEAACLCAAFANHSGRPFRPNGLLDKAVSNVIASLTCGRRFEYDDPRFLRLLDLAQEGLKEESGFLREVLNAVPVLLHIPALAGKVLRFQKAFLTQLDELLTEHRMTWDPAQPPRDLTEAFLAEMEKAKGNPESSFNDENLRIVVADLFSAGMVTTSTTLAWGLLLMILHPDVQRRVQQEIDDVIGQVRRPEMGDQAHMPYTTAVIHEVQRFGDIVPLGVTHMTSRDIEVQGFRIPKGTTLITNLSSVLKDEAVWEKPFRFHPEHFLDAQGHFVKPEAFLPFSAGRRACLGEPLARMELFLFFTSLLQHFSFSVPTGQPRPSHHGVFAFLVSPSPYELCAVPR

| SMILES | IC50 [1] [µM] | IC50 [2] [µM] | IC50 [3] [µM] | IC50 [4] [µM] | IC50 [5] [µM] | IC50 [6] [µM] |
| --- | --- | --- | --- | --- | --- | --- |
| Cc1nc2cc(NC(=O)c3cc4sc(N5CCC(C(=O)N(C)C)CC5)nc4s3)ccc2o1 | > 50 | > 50 | > 50 | > 50 | > 50 | > 30 |
| O=C(Nc1ccc(-c2ccc(F)cn2)cc1)c1cc2sc(NCCN3CCOCC3)nc2s1 | 6.95 | 6.85 | > 100 | 7.41 | > 100 | 27.6 |

From BindingDB's records for doi:10.1021/jf000548p (Institut Pasteur Korea, 2020)
